Reference: US11000033B2, “Ketone or oxime compound, and herbicide” (NISSAN CHEMICAL CORPORATION, priority 2014, dated 2021)

Experiments:
Type in all cases: in vivo
Stellaria media = experiment: Test Example 5: herbicidal effect by foliage application, plastic box (symbol P); conditions: 320 g/ha, 3 weeks after application
How it was run: (§1)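 Effect is rated 3 weeks after a foliar spray of water-diluted emulsion concentrate at a predetermined herbicide amount. Plants had grown 14 days in a 25° C. to 30° C. greenhouse from seed in sterilized diluvial soil.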

[1] = system: Echinochloa crus-galli var. crus-galli; experiment: Test Example 3: herbicidal effect by foliage application, Wagner pot (symbol H); conditions: application herbicide amount 320 g/ha; for H (Echinochloa crus-galli var. crus-galli) herbicidal effect grade: Table 24
How it was run: (§2)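 In a shallow-flooded alluvial soil system held at 25–30 °C, plants including rice grew for 14 days and were then sprayed over the foliage with emulsion diluted to a fixed herbicide amount. Visual rating followed at 3 weeks.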

corn = experiment: Test Example 4: effect on crop by soil treatment (symbol c); conditions: application herbicide amount 320 g/ha
How it was run: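 Grown at 25° C. to 30° C. in a greenhouse, the crops came from seed sown spot-wise in sterilized diluvial soil under roughly 1.5 cm of covering soil.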

wheat = experiment: Test Example 5: effect on crop by foliage application, plastic box (symbol e); conditions: 320 g/ha, 3 weeks after application
How it was run: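 Foliage-application test plants come from spot sowing in sterilized diluvial soil under a soil layer of about 1.5 cm, grown at 25° C. to 30° C. in a greenhouse.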

Alopecurus myosuroides [2] = experiment: Test Example 5: herbicidal effect by foliage application, plastic box (symbol J); conditions: 320 g/ha, 3 weeks after application
How it was run: as §1

Digitaria ciliaris = experiment: Test Example 4: herbicidal effect by soil treatment (symbol F); conditions: application herbicide amount 320 g/ha
How it was run: (§3)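 Seeds were sown in sterilized diluvial soil, covered with about 1.5 cm of soil, and the soil surface was sprayed with a water-diluted emulsion of the compound at a predetermined rate. Plants grew in a greenhouse at 25° C. to 30° C.; effects were scored visually 3 weeks after application.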

Abutilon theophrasti = experiment: Test Example 5: herbicidal effect by foliage application, plastic box (symbol M); conditions: 320 g/ha, 3 weeks after application
How it was run: as §1

Galium spurium = experiment: Test Example 5: herbicidal effect by foliage application, plastic box (symbol Q); conditions: 320 g/ha, 3 weeks after application
How it was run: as §1

rapeseed = experiment: Test Example 4: effect on crop by soil treatment (symbol g); conditions: application herbicide amount 320 g/ha
How it was run: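 The test used sterilized diluvial soil. Seed was set down in spots and overlaid with about 1.5 cm of soil before growth in a greenhouse kept at 25° C. to 30° C.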

[3] = system: directly sowed rice plant; experiment: Test Example 3: effect on crop by foliage application, Wagner pot (symbol b); conditions: application herbicide amount 320 g/ha; for b (directly sowed rice plant) effect on crop grade: Table 24
How it was run: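 Plants are raised from seed in flooded paddy conditions: water stands 0.1–0.5 cm over alluvial soil, and the pot is kept in a greenhouse at 25–30 °C. Species sown are barnyardgrass (E. crus-galli var. crus-galli), Leptochloa chinensis, Cyperus difformis and rice.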

Leptochloa chinensis = experiment: Test Example 3: herbicidal effect by foliage application, Wagner pot (symbol D); conditions: application herbicide amount 320 g/ha; for D (Leptochloa chinensis) herbicidal effect grade: Table 24
How it was run: as §2

Alopecurus myosuroides [4] = experiment: Test Example 4: herbicidal effect by soil treatment (symbol J); conditions: application herbicide amount 320 g/ha
How it was run: as §3

Apera spica-venti = experiment: Test Example 5: herbicidal effect by foliage application, plastic box (symbol L); conditions: 320 g/ha, 3 weeks after application
How it was run: as §1

Cyperus difformis = experiment: Test Example 3: herbicidal effect by foliage application, Wagner pot (symbol E); conditions: application herbicide amount 320 g/ha; for E herbicidal effect grade: Table 24
How it was run: as §2

Scirpus juncoides = experiment: Test Example 1: herbicidal activity, application before weed generation in submerged conditions (symbol B); conditions: application herbicide amount 320 g/ha
How it was run: (§4)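 Scores run 0 to 5 by herbicidal ratio, with 5 meaning 90% or more and 0 meaning 5% or lower, read 3 weeks after treatment. Compound was applied as a diluted emulsion to the water surface of submerged alluvial-soil pots on the day weed seeds were sown.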

[5] = system: Echinochloa oryzacola Vasing.; experiment: Test Example 1: herbicidal activity, application before weed generation in submerged conditions (symbol A); conditions: application herbicide amount 320 g/ha
How it was run: as §4

Row | SMILES | P: Stellaria media, herbicidal effect grade (Stellaria media) | H (Echinochloa crus-galli var. crus-galli) herbicidal effect grade [1] | Effect on crop grade, c: corn (corn) | e: wheat, effect on crop grade (wheat) | J: Alopecurus myosuroides, herbicidal effect grade (Alopecurus myosuroides [2]) | Herbicidal effect grade, F: Digitaria ciliaris (Digitaria ciliaris) | M: Abutilon theophrasti, herbicidal effect grade (Abutilon theophrasti) | Q: Galium spurium, herbicidal effect grade (Galium spurium) | Effect on crop grade, g: rapeseed (rapeseed) | b (directly sowed rice plant) effect on crop grade [3] | D (Leptochloa chinensis) herbicidal effect grade (Leptochloa chinensis) | Herbicidal effect grade, J: Alopecurus myosuroides (Alopecurus myosuroides [4]) | L: Apera spica-venti, herbicidal effect grade (Apera spica-venti) | herbicidal effect on H (Echinochloa crus-galli var. crus-galli), grade 0-5 [1] | herbicidal effect on E, grade 0-5 (Cyperus difformis) | c (corn) effect on crop grade (corn) | F (Digitaria ciliaris) herbicidal effect grade (Digitaria ciliaris) | Herbicidal effect grade, B: Scirpus juncoides (Scirpus juncoides) | Herbicidal effect grade, A: Echinochloa oryzacola Vasing. [5] | effect on crop b (directly sowed rice plant), grade 0-5 [3] | other results
1 | CC(CC1CC(O)=C(c2c(C)cc(Br)cc2C)C1=O)=NOCC(=O)N(C)C (mixture of isomers) [9-029] | 0 (Herbicidal ratio of 5% or lower (almost no effect)) | 4 (Herbicidal ratio of 70% or higher and lower than 90%) | 0 (Herbicidal ratio of 5% or lower (almost no effect)) | 4 (Herbicidal ratio of 70% or higher and lower than 90%) | 1 (Herbicidal ratio of 5% or higher and lower than 20%) | 3 (Herbicidal ratio of 40% or higher and lower than 70%) | 0 (Herbicidal ratio of 5% or lower (almost no effect)) | 0 (Herbicidal ratio of 5% or lower (almost no effect)) | 0 (Herbicidal ratio of 5% or lower (almost no effect)) | 3 (Herbicidal ratio of 40% or higher and lower than 70%) | 4 (Herbicidal ratio of 70% or higher and lower than 90%) | 3 (Herbicidal ratio of 40% or higher and lower than 70%) | 4 (Herbicidal ratio of 70% or higher and lower than 90%) |  |  |  |  |  |  |  | 
2 | CON=C(CC1CC(O)=C(c2c(C)cc(C)cc2C)C1=O)c1ccccc1 (stereo not shown) [1-047] | 0 (Herbicidal ratio of 5% or lower (almost no effect)) |  |  | 0 (Herbicidal ratio of 5% or lower (almost no effect)) | 3 (Herbicidal ratio of 40% or higher and lower than 70%) |  | 0 (Herbicidal ratio of 5% or lower (almost no effect)) | 0 (Herbicidal ratio of 5% or lower (almost no effect)) |  |  |  |  | 1 (Herbicidal ratio of 5% or higher and lower than 20%) | 1 (Herbicidal ratio of 5% or higher and lower than 20%) | 0 (Herbicidal ratio of 5% or lower (almost no effect)) | 0 (Herbicidal ratio of 5% or lower (almost no effect)) | 3 (Herbicidal ratio of 40% or higher and lower than 70%) | 0 (Herbicidal ratio of 5% or lower (almost no effect)) | 4 (Herbicidal ratio of 70% or higher and lower than 90%) | 2 (Herbicidal ratio of 20% or higher and lower than 40%) | herbicidal effect on D (Leptochloa chinensis), grade 0-5 (Leptochloa chinensis): 3 (Herbicidal ratio of 40% or higher and lower than 70%); J (Alopecurus myosuroides) herbicidal effect grade (Alopecurus myosuroides [4]): 0 (Herbicidal ratio of 5% or lower (almost no effect))
3 | CON=C(C)CC1CC(OC(=O)COc2ccc(Cl)cc2Cl)=C(c2c(C)cc(C)cc2C)C1=O (stereo not shown) [1-075] |  |  |  |  |  |  |  |  |  |  |  |  |  | 5 (Herbicidal ratio of 90% or more (almost completely withered)) | 5 (Herbicidal ratio of 90% or more (almost completely withered)) | 5 (Herbicidal ratio of 90% or more (almost completely withered)) | 5 (Herbicidal ratio of 90% or more (almost completely withered)) | 4 (Herbicidal ratio of 70% or higher and lower than 90%) | 5 (Herbicidal ratio of 90% or more (almost completely withered)) | 5 (Herbicidal ratio of 90% or more (almost completely withered)) | P: Stellaria media, herbicidal effect (criteria 0-5) (Stellaria media): 1 (Herbicidal ratio of 5% or higher and lower than 20%); e: wheat, effect on crop (criteria 0-5) (wheat): 5 (Herbicidal ratio of 90% or more (almost completely withered)); J: Alopecurus myosuroides, herbicidal effect (criteria 0-5) (Alopecurus myosuroides [2]): 5 (Herbicidal ratio of 90% or more (almost completely withered)); M: Abutilon theophrasti, herbicidal effect (criteria 0-5) (Abutilon theophrasti): 4 (Herbicidal ratio of 70% or higher and lower than 90%); Q: Galium spurium, herbicidal effect (criteria 0-5) (Galium spurium): 0 (Herbicidal ratio of 5% or lower (almost no effect)); herbicidal effect on D (Leptochloa chinensis), grade 0-5 (Leptochloa chinensis): 5 (Herbicidal ratio of 90% or more (almost completely withered)); J (Alopecurus myosuroides) herbicidal effect grade (Alopecurus myosuroides [4]): 5 (Herbicidal ratio of 90% or more (almost completely withered)); L: Apera spica-venti, herbicidal effect (criteria 0-5) (Apera spica-venti): 5 (Herbicidal ratio of 90% or more (almost completely withered))
4 | CON=C(CC1CC(O)=C(c2c(C)cc(Br)cc2C)C1=O)C1CC1 (stereo not shown) [9-002] | 0 (Herbicidal ratio of 5% or lower (almost no effect)) | 5 (Herbicidal ratio of 90% or more (almost completely withered)) | 3 (Herbicidal ratio of 40% or higher and lower than 70%) | 3 (Herbicidal ratio of 40% or higher and lower than 70%) | 5 (Herbicidal ratio of 90% or more (almost completely withered)) | 5 (Herbicidal ratio of 90% or more (almost completely withered)) | 4 (Herbicidal ratio of 70% or higher and lower than 90%) |  | 0 (Herbicidal ratio of 5% or lower (almost no effect)) | 5 (Herbicidal ratio of 90% or more (almost completely withered)) | 5 (Herbicidal ratio of 90% or more (almost completely withered)) | 5 (Herbicidal ratio of 90% or more (almost completely withered)) | 5 (Herbicidal ratio of 90% or more (almost completely withered)) |  |  |  |  | 2 (Herbicidal ratio of 20% or higher and lower than 40%) | 5 (Herbicidal ratio of 90% or more (almost completely withered)) |  | E herbicidal effect grade (Cyperus difformis): 5 (Herbicidal ratio of 90% or more (almost completely withered))
5 | CON=C(CC1CC(O)=C(c2c(C)cc(-n3cc(Cl)cn3)cc2C)C1=O)C(C)C (stereo not shown) [9-004] | 2 (Herbicidal ratio of 20% or higher and lower than 40%) | 5 (Herbicidal ratio of 90% or more (almost completely withered)) | 0 (Herbicidal ratio of 5% or lower (almost no effect)) | 3 (Herbicidal ratio of 40% or higher and lower than 70%) | 5 (Herbicidal ratio of 90% or more (almost completely withered)) | 5 (Herbicidal ratio of 90% or more (almost completely withered)) | 0 (Herbicidal ratio of 5% or lower (almost no effect)) |  | 0 (Herbicidal ratio of 5% or lower (almost no effect)) | 5 (Herbicidal ratio of 90% or more (almost completely withered)) | 5 (Herbicidal ratio of 90% or more (almost completely withered)) | 5 (Herbicidal ratio of 90% or more (almost completely withered)) | 4 (Herbicidal ratio of 70% or higher and lower than 90%) |  |  |  |  | 2 (Herbicidal ratio of 20% or higher and lower than 40%) | 5 (Herbicidal ratio of 90% or more (almost completely withered)) |  | E herbicidal effect grade (Cyperus difformis): 5 (Herbicidal ratio of 90% or more (almost completely withered))
